The nature of this data set: solvent given as SMILES.

These results are taken from the Deep4Chem optical property database.

Take `c1ccc(-c2nn(-c3ccccc3)c3nc4ccc(N(c5ccccc5)c5ccccc5)cc4cc23)cc1`: the emission maximum reads like this: (in C1CCCCC1) 486.62 nm; (in C1CCOC1) 524.66 nm; (in CC#N) 570.78 nm; (in CC(C)=O) 551.27 nm; (in CCCCCl) 516 nm; (in CCCCOCCCC) 498.75 nm. This compound gave an emission maximum (in CN(C)C=O) of 567.21 nm.

Compound `CN(C)c1ccc(C#Cc2cc(C#Cc3ccc(N(C)C)cc3)c3ccc4c(C#Cc5ccc(N(C)C)cc5)cc(C#Cc5ccc(N(C)C)cc5)c5ccc2c3c54)cc1` returned an emission maximum (in ClCCl) of 562 nm.

As to `CN(C)c1ccc(/C=C/c2cnc3ccccc3n2)cc1`, the emission maximum by setting is: (in C1CCOC1) 556 nm; (in CC#N) 611 nm; (in CCCCCCC) 468 nm; (in CS(C)=O) 622 nm; (in ClCCl) 570 nm.

Under “in CCO”, `CN(C)c1cc2c(cc1F)c(=O)c1cc(F)c(N)cc1n2C` gave an emission maximum of 432 nm.

For `CCCCCCCCOc1ccc(C#Cc2ccc(C#Cc3ccc(OCCCCCCCC)c(OCCCCCCCC)c3)c3nc4c5ccccc5c5ccccc5c4nc23)cc1OCCCCCCCC`, the emission maximum is 558 nm (in C1CCOC1), 541 nm (in Cc1ccccc1) and 566 nm (in ClCCl).

With `N#Cc1cc(C#N)c(-n2c3ccccc3c3c(-c4cccc5c4c4ccccc4n5-c4cc(-n5c6ccccc6c6ccccc65)c(C#N)cc4C#N)cccc32)cc1-n1c2ccccc2c2ccccc21`, under “in O=P(c1ccccc1)(c1ccccc1)c1ccccc1Oc1ccccc1P(=O)(c1ccccc1)c1ccccc1”, the emission maximum was 444 nm.

Take `CC(C)(C)NC(=O)c1cccc2ccc3c4cc(Cl)ccc4c4ccc(Cl)cc4c3c12`: under “in ClCCl”, the emission maximum is listed as 407 nm.

For the compound `CCC1(CC)c2cc(B(c3c(C)cc(C)cc3C)c3c(C)cc(C)cc3C)ccc2-c2c1c1c(c3c2C(CC)(CC)c2cc(N(c4ccccc4)c4ccccc4)ccc2-3)C(CC)(CC)c2cc(B(c3c(C)cc(C)cc3C)c3c(C)cc(C)cc3C)ccc2-1`, the emission maximum reads like this: (in C1CCOC1) 500 nm; (in CC#N) 582 nm; (in CC(C)=O) 550 nm; (in CCCCCC) 421 nm; (in CCCO) 501 nm; (in CCO) 512 nm. The emission maximum (in Cc1ccccc1) was 444 nm and the emission maximum (in ClC(Cl)Cl) is reported as 473 nm.

Compound `CC1(C)c2ccccc2N(c2ccc(-c3cnc(C#N)nc3)cc2)c2ccccc21` yielded an emission maximum (in Cc1ccccc1) of 524 nm and an emission maximum (in N#Cc1ccc2c(c1)c1ccccc1n2-c1cccc(-n2c3ccccc3c3ccccc32)c1) of 526 nm.

Take `CCC1=C(C)C2=Cc3c4ccccc4c4n3[B-](c3ccccc3)(Oc3ccccc3-4)[N+]2=C1C` (stereo not drawn): the emission maximum worked out at 634 nm (in CC#N), 636 nm (in CCCCCC), 640 nm (in Cc1ccccc1) and 638 nm (in ClCCl).

As to `CCC1(CC)c2ccccc2-c2ccc(C#Cc3cc(C#Cc4ccc5c(c4)C(CC)(CC)c4ccccc4-5)c4ccc5c(C#Cc6ccc7c(c6)C(CC)(CC)c6ccccc6-7)cc(C#Cc6ccc7c(c6)C(CC)(CC)c6ccccc6-7)c6ccc3c4c65)cc21`, the emission maximum (in Cc1ccccc1) came to 549 nm.

The compound `COc1cccc(-c2nc(-c3ccccc3)c(-c3ccccc3)[nH]2)c1` returned an emission maximum (in CO) of 379 nm.

`[O-][n+]1c(/C=C/c2ccccc2)nc(Nc2ccccc2)c2c1CCCC2` had an emission maximum (in ClCCl) of 508 nm.

With `c1ccc(-c2nc(-c3ccccc3)nc(-c3ccc(-n4c5ccc(-c6ccc7oc8ccccc8c7c6)cc5c5cc(-c6ccc7oc8ccccc8c7c6)ccc54)cc3)n2)cc1`, the emission maximum runs as follows: (in CCOC(C)=O) 476 nm; (in CN(C)C=O) 529 nm; (in Cc1ccccc1) 437 nm.

Regarding `Cc1ccc(-c2c3nc(c(-c4ccc(C)cc4)c4ccc([nH]4)c(-c4ccc(OC(=O)C(C)c5cccc(C(=O)c6ccccc6)c5)cc4)c4nc(c(-c5ccc(C)cc5)c5ccc2[nH]5)C=C4)C=C3)cc1` (stereo not drawn), for the setting “in ClCCl”, the emission maximum stood at 652 nm.

With `C(=C\c1ccc(Nc2ccccc2)cc1)/c1ccccc1`, the emission maximum (in CC#N) turned out to be 436 nm and the emission maximum (in CCCCCC) is recorded as 378 nm.

In turn, `F[Si](c1ccccc1)(c1c2ccccc2cc2ccccc12)c1c2ccccc2cc2ccccc12` displayed an emission maximum (in C1CCOC1) of 409 nm.
